One experiment deals with COLO205 cells. In words: Cell proliferation assay (COLO205), Cell-titer Glo. The settings on record: Homo sapiens, COLO 205, 120 h incubation. Format: cell-based. The procedure: COLO205 cells were spread into a 96-well plate at 135 μL/well at 2000 cells. After incubating overnight, compound solutions of gradient concentration was prepared, and added 15 μL of DMSO solution of the test compound of each concentration to the cells of each well. The final concentration of the compound was 30000, 10000, 3333.3, 1111.1, 370.4, 123.5, 41.2, 13.7, 4.6, 0 nM (the final concentration of DMSO was 0.5%). 5% CO2 was incubated for 120 h at 37° C. 50 μL of Cell-titer Glo working solution was added to each well, shaked and mixed, and incubated at room temperature for 10 minutes. The multi-functional microplate reader read the luminescence value, and converted the luminescence value reading into inhibition percentage. Inhibition percentage=(maximum value−reading)/(maximum value−minimum value)*100.
The “maximum value” was the DMSO control, the “minimum value” indicates the cell-free control group.
Graphpad Prism software was used to perform curve fitting and obtain IC50 value.

In the next experiment the target is ERK2 (Homo sapiens, UniProt P28482). In words: Kinase assay (Caliper, FAM-labeled peptide), ERK2. Format: biochemical. A digest of the protocol: (§1)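 Kinase preincubated 10 min at room temperature with serially diluted compound before FAM-labeled peptide plus ATP added; reaction run at 28 °C, then stopped. Substrate conversion read by Caliper mobility shift, normalized to DMSO and low controls, curve-fitted for IC50.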
Chain of ERK2 (P28482 whole entry): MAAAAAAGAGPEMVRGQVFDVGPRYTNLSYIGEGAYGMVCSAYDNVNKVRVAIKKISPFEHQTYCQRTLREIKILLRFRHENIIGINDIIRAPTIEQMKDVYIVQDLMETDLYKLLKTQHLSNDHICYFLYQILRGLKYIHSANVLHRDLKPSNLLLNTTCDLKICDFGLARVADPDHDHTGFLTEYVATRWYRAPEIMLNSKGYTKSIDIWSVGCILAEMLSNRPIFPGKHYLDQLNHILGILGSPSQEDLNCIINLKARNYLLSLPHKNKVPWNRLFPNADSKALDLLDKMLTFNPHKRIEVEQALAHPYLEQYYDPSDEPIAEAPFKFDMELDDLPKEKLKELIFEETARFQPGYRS

In the next experiment the target is ERK1 (Homo sapiens, UniProt P27361). Nature of the experiment: Kinase assay (Caliper, FAM-labeled peptide), ERK1. In kind it is biochemical. In short, it runs like this:
as §1

pIC50: −log10 of the molar value.

The pIC50 is the IC50 on a negative log10 scale, so that one unit is a factor of ten. Broadly, the IC50 is the point on the concentration scale where inhibition reaches its midpoint. Low values mean higher potency, high ones lower potency.

Chain of ERK1 (P27361 whole entry): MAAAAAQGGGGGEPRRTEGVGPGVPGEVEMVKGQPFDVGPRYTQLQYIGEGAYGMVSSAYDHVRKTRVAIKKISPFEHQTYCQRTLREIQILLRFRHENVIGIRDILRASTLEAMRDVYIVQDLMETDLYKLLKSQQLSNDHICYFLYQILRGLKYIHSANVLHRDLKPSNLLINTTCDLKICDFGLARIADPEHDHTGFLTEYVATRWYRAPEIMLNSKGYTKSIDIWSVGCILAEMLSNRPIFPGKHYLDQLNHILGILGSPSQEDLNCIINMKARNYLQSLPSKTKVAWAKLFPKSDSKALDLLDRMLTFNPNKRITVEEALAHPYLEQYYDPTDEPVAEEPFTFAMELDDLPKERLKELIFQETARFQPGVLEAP

As for `CC(C)Nc1cc(-c2cc3n(c2)CCN(Cc2cc(F)ccc2CO)C3=O)c(Cl)cn1` [Example 18, 7-(5-chloro-2-(isopropylamino)pyridin-4-yl)-2-(5-fluoro-2-(hydroxymethyl)benzyl)-3,4-dihydropyrrolo[1,2-a]pyrazine-1(2H)-one], in the experiment with COLO205 cells, the pIC50 was 7.25. The IC50 against ERK2 is 0.49 nM; on ERK1, 0.4 nM.
Take `Cc1cnc(NC2CCOC2)nc1-c1cc2n(c1)CCN(Cc1cc(F)ccc1CO)C2=O` (stereo not drawn) [Example 33, 2-(5-fluoro-2-(hydroxymethyl)benzyl)-7-(5-methyl-2-((tetrahydrofuran-3-yl)amino)pyrimidin-4-yl)-3,4-dihydropyrrolo[1,2-a]pyrazine-1(2H)-one]: in the experiment with COLO205 cells, the pIC50 is 7.12. Besides, the results for the 50% inhibitory concentration (IC50) against ERK2 and on ERK1 were 0.4 nM and 0.45 nM, respectively.
With `CC(C)Nc1cc(-c2cc3n(c2)CC2(CNC2)CN(Cc2ccccc2CO)C3=O)c(Cl)cn1` [Example 24, 8′-(5-Chloro-2-(isopropylamino)pyridin-4-yl)-2′-(2-(hydroxymethyl)benzyl)-2′,3′-dihydro-1′H,5′H-spiro[azetidine-3,4′-pyrrolo[1,2-a][1,4]diazepine]-1′-one], the pIC50 with COLO205 cells is 7.30. Further, the IC50 against ERK2 was determined as 0.53 nM; at ERK1 it was 0.65 nM.
The compound `Cc1cnc(Nc2ccnn2C)nc1-c1cc2n(c1)CCN(Cc1cc(F)ccc1CO)C2=O` [Example 23, 2-(5-Fluoro-2-(hydroxymethyl)benzyl)-7-(5-methyl-2-((1-methyl-1H-pyrazol-5-yl)amino)pyrimidin-4-yl)-3,4-dihydropyrrolo[1,2-a]pyrazine-1(2H)-one] had a pIC50 with COLO205 cells of 7.73. For the same compound, the IC50 was found to be 0.48 nM against ERK2 and 0.42 nM on ERK1.
In the same order, the values of `CC(C)Nc1cc(-c2cc3n(c2)CC(CO)CN(Cc2cccc(Cl)c2)C3=O)c(Cl)cn1` (stereo not drawn) [Example D7, 8-(5-chloro-2-(isopropylamino)pyridin-4-yl)-2-(3-chlorophenylmethyl)-4-(hydroxymethyl)-2,3,4,5-tetrahydro-1h-pyrrolo [1,2-a][1,4]diazepine-1-one, reference compound] are < 5.00, > 300 nM and > 300 nM.
In the same order, the values of `CC(C)Nc1cc(-c2c[nH]c(C(=O)NCc3cccc(F)c3)c2)c(Cl)cn1` [Example D6, 4-(5-chloro-2-(isopropylamino)pyridine-4-yl)-N-(3-fluorobenzyl)-1h-pyrrole-2-formamide, reference compound] are < 5.00, 26 nM and 44 nM.
On the same counts, the results for `CC(C)Nc1cc(-c2cc3n(c2)CCCN(Cc2cc(F)c(F)cc2CO)C3=O)c(Cl)cn1` [Example 21, 8-(5-chloro-2-(isopropylamino)pyridin-4-yl)-2-(4,5-difluoro-2-(hydroxymethyl)benzyl)-2,3,4,5-tetrahydro-1h-pyrrolo[1,2-a][1,4] diazepine-1-one] are 7.13, 0.76 nM and 0.73 nM.
As to `CC(C)Nc1cc(-c2cc3n(c2)CC(O)CN(Cc2cc(F)ccc2CO)C3=O)c(Cl)cn1` (stereo not drawn) [Example 20, 8-(5-chloro-2-(isopropylamino)pyridin-4-yl)-2-(5-fluoro-2-(hydroxymethyl)benzyl)-4-hydroxy-2,3,4,5-tetrahydro-1h-pyrrolo [1,2-a][1,4]diazepine-1-one], the pIC50 in the experiment with COLO205 cells was 7.12. The results for the IC50 against ERK2 and on ERK1 were 0.56 nM and 0.34 nM, respectively.
In the same order, the values of `COC[C@H]1Cn2cc(-c3cc(Nc4ccnn4CC(F)F)ncc3Cl)cc2C(=O)N1Cc1cc(F)ccc1CO` [Example 115, (R)-7-(5-chloro-2-((1-(2,2-difluoroethyl)-1h-pyrazole-5-yl)amino)pyridine-4-yl)-2-(5-fluoro-2-(hydroxymethyl)benzyl)-3-(methoxymethyl)-3,4-dihydropyrrolo[1,2-a] pyrazine-1(2H)-one] are 7.78, 1.2 nM and 1.6 nM.
On the same counts, the results for `COC[C@H]1Cn2cc(-c3cc(Nc4ccn(C)n4)ncc3Cl)cc2C(=O)N1Cc1cc(F)ccc1CO` [Example 86, (R)-7-(5-chloro-2-((1-methyl-1h-pyrazole-3-yl)amino)pyridine-4-yl)-2-(5-fluoro-2-(hydroxymethyl)benzyl)-3-(methoxymethyl)-3,4-dihydropyrrolo[1,2-a] pyrazine-1(2H)-one] are 7.53, 0.8 nM and 0.91 nM.
In the same order, the values of `CC(C)Nc1cc(-c2cc3n(c2)CC2(COC2)CN(Cc2cc(F)ccc2CO)C3=O)c(Cl)cn1` [Example 10, 8′-(5-chloro-2-(isopropylamino)pyridin-4-yl)-2′-(5-fluoro-2-(hydroxymethyl)benzyl)-2′,3′-dihydro-1′h,5′h-spiro[oxacyclobutane-3,4′-pyrrolo[1,2-a][1,4]diazepine]-1′-one] are 7.78, 0.87 nM and 0.89 nM.
As to `CC(C)Nc1cc(-c2cnc(C(=O)NCc3cc(F)ccc3CO)s2)c(Cl)cn1` [Example 2, 5-(5-Chloro-2-(isopropylamino)pyridin-4-yl)-N-(5-fluoro-2-(hydroxymethyl)benzyl)thiazole-2-formamide], the pIC50 in the experiment on COLO205 cells is 7.11. The figures for the IC50 on ERK2 and on ERK1 were 0.9 nM and 1 nM, respectively.
In the same order, the values of `CC(C)Nc1cc(-c2cc3n(c2)CCCN(Cc2ccccc2CO)C3=O)c(Cl)cn1` [Example 16, 8-(5-chloro-2-(isopropylamino)pyridin-4-yl)-2-(2-(hydroxylmethyl)benzyl)-2,3,4,5-tetrahydro-1h-pyrrolo [1,2-a][1,4]diazepine-1-one] are 7.25, 0.6 nM and 0.9 nM.
In the same order, the values of `CC(C)Nc1cc(-c2cc3n(c2)CC(CO)(CO)CN(Cc2ccccc2CO)C3=O)c(Cl)cn1` [Example 27] are 8.02, 0.59 nM and 0.96 nM.
`Cc1cnc(Nc2ccnn2C)nc1-c1c[nH]c(C(=O)NCc2cc(F)ccc2CO)c1` [Example 22, N-(5-fluoro-2-(hydroxymethyl)benzyl)-4-(5-methyl-2-((1-methyl-1H-pyrazol-5-yl)amino)pyrimidin-4-yl)-1H-pyrrole-2-carboxamide]: in the experiment on COLO205 cells, the pIC50 is 7.45. The IC50 stood at 0.34 nM against ERK2 and 0.43 nM against ERK1.
Take `CC(C)Nc1cc(-c2cc3n(n2)CC(CO)(CCl)CN(Cc2ccccc2CO)C3=O)c(Cl)cn1` (stereo not drawn) [Example 8, 2-(5-Chloro-2-(isopropylamino)pyridin-4-yl)-7-(chloromethyl)-7-(hydroxymethyl)-5-(2-(hydroxymethyl)benzyl)-5,6,7,8-tetrahydro-4H-pyrazolo[1,5-a][1,4]diazepine-4-one]: in the experiment with COLO205 cells, the pIC50 is 7.44. Also, the IC50 stood at 1.4 nM at ERK2 and 1.3 nM against ERK1.

For the origin of these results see patent US11466013B2 (Betta Pharmaceuticals Co., LTD, priority 2018, dated 2022).
